Conditions: 303.15 K, Liquid, Vibrating tube method

CCCCCCCCCC [decane]
Conditions	mass density [kg/m3]
29181 kPa	743.5
29208 kPa	743.5
29234 kPa	743.6
29258 kPa	743.5
29278 kPa	743.6
29302 kPa	743.6
29320 kPa	743.5
29341 kPa	743.6
29363 kPa	743.6
29384 kPa	743.6
29402 kPa	743.6
29426 kPa	743.6
29444 kPa	743.7
29466 kPa	743.6
29484 kPa	743.7
29502 kPa	743.7
29530 kPa	743.8
29548 kPa	743.7
29575 kPa	743.7
29600 kPa	743.7
29618 kPa	743.8
29640 kPa	743.8
29658 kPa	743.8
29685 kPa	743.9
29703 kPa	743.8
29722 kPa	743.9
29747 kPa	743.9
29774 kPa	743.9
29790 kPa	743.8
29812 kPa	743.8
29828 kPa	744
29859 kPa	743.9
29883 kPa	744
29905 kPa	744
29930 kPa	743.9
29952 kPa	744
29967 kPa	744
29987 kPa	743.9
30005 kPa	744
30023 kPa	744.1
30051 kPa	743.9
30077 kPa	744.1
30099 kPa	744
30125 kPa	744
30150 kPa	744.2
30169 kPa	744.1
30198 kPa	744.2
30220 kPa	744.1
30248 kPa	744.2
30267 kPa	744.2
30290 kPa	744.2
30322 kPa	744.2
30348 kPa	744.3
30374 kPa	744.3
30397 kPa	744.2
30420 kPa	744.3
30443 kPa	744.3
30468 kPa	744.4
30491 kPa	744.4
30516 kPa	744.3
30533 kPa	744.4
30553 kPa	744.4
30582 kPa	744.3
30601 kPa	744.5
30621 kPa	744.4
30644 kPa	744.5
30665 kPa	744.4
30695 kPa	744.5
30715 kPa	744.3
30739 kPa	744.4
30762 kPa	744.5
30789 kPa	744.7
30809 kPa	744.5
30833 kPa	744.5
30853 kPa	744.7
30884 kPa	744.6
30908 kPa	744.6
30931 kPa	744.6
30956 kPa	744.5
30980 kPa	744.6
31007 kPa	744.6
31031 kPa	744.6
31062 kPa	744.8
31083 kPa	744.7
31111 kPa	744.7
31134 kPa	744.6
31157 kPa	744.7
31178 kPa	744.8
31212 kPa	744.7
31231 kPa	744.8
31252 kPa	744.9
31271 kPa	744.8
31293 kPa	744.9
31311 kPa	744.9
31327 kPa	744.8
31348 kPa	744.9
31363 kPa	744.9
31381 kPa	744.9
31400 kPa	744.9
31425 kPa	744.9
31446 kPa	745
31468 kPa	745
31490 kPa	744.9
31515 kPa	744.9
31540 kPa	745
31565 kPa	745
31588 kPa	745
31610 kPa	745.1
31640 kPa	745.2
31660 kPa	745.1
31688 kPa	745.1
31707 kPa	745.2
31725 kPa	745.2
31754 kPa	745.1
31769 kPa	745.2
31798 kPa	745.1
31817 kPa	745.2
31842 kPa	745.2
31861 kPa	745.1
31887 kPa	745.1
31906 kPa	745.3
31925 kPa	745.3
31950 kPa	745.3
31972 kPa	745.3
31995 kPa	745.3
32014 kPa	745.3
32040 kPa	745.4
32059 kPa	745.4
32079 kPa	745.4
32098 kPa	745.3
32128 kPa	745.3
32150 kPa	745.4
32176 kPa	745.3
32198 kPa	745.5
32228 kPa	745.4
32251 kPa	745.4
32274 kPa	745.5

— the NIST ThermoML archive (doi:10.1021/je800110r)
